Several values for one entry are separate records, joined by “and”; a condition that tells them apart may be missing. Equal entries are not always repeated.
Experiments:
[1] = system: L1210 murine leukemia cells; experiment: Antitumor activity against L1210 leukemia in mice; type: in vivo, CDF1 mice; conditions: for Survival days (mean ± SD) / T/C (%): given on 1st, 5th and 9th days after tumor inoculation; for Survival rate: number of 30 days survival mice / group
Description: L1210 murine leukemia cells which were subcultured in DBA/2 mouse were inoculated intraperitoneally into CDF1 mice at 10^5 cells/mouse. Each experimental group was composed of 6-10 mice (male, 6-weeks old). Each test compound was administered three times, i.e., on the 1st, 5th and 9th days after tumor inoculation. […] Each compound was dissolved or suspended in 0.05% "Tween 80" solution and administered in mice.

Slc:ICR mice = experiment: Acute toxicity test in mice (LD50, Miller-Tainter method); type: in vivo; conditions: intraperitoneal, Slc:ICR mice (male), death rate on the 14th day
Description: Platinum complexes to be tested was administered intraperitoneally to Slc:ICR mice (male, 5 weeks old, 6 mice/group). Each complex was used in the form of a solution or suspension in a 0.05% "Tween 80" in saline. The LD50 value was calculated by the Miller-Tainter method from the death rate on the 14th day from the date of the administration.

## NC1CCCCC1N.O=C([O-])c1ccc(=O)oc1.O=C([O-])c1ccc(=O)oc1.[Pt+2] [XXII-1, bis(2-pyrone-5-carboxylato)(trans-ℓ-dach)platinum(II)]
[1]; Dose 1 mg/kg, 1 mg/kg
  Survival days (mean ± SD): 9.0 ± 0.9 days and 11.3 ± 0.8 days
  T/C (%): 108% and 140%
[1]; Dose 1 mg/kg
  Survival rate: 0/6
[1]; Dose 10 mg/kg, 10 mg/kg
  Survival rate: 0/6 and 2/6
[1]; Dose 25 mg/kg, 25 mg/kg
  Survival rate: 0/6 and 3/6
[1]; Dose 50 mg/kg, 50 mg/kg
  Survival days (mean ± SD): 15.2 ± 3.1 days and 17.8 ± 2.8 days
  T/C (%): 183% and 220%
[1]; Dose 50 mg/kg
  Survival rate: 0/6
[1]; Dose 100 mg/kg, 100 mg/kg
  Survival days (mean ± SD): 20.7 ± 7.2 days and 12.3 ± 2.7 days
  T/C (%): 249% and 152%
  Survival rate: 1/6 and 0/6
[1]; Dose 200 mg/kg
  Survival rate: 0/6
Slc:ICR mice
  LD50 values: >200 mg/kg

## NC1CCCCC1N.O=C([O-])c1cc2ccccc2[nH]1.O=C([O-])c1cc2ccccc2[nH]1.[Pt+2] [XXIII-1, Bis(indole-2-carboxylato)(trans-ℓ-dach)platinum(II)]
[1]; Dose 1 mg/kg
  Survival days (mean ± SD): 8.5 ± 0.8 days
  T/C (%): 102%
  Survival rate: 0/6
[1]; Dose 10 mg/kg
  Survival days (mean ± SD): 10.5 ± 1.0 days
  T/C (%): 127%
  Survival rate: 0/6
[1]; Dose 25 mg/kg
  Survival days (mean ± SD): 15.0 ± 5.4 days
  T/C (%): 181%
  Survival rate: 0/6
[1]; Dose 50 mg/kg
  Survival days (mean ± SD): 18.7 ± 9.2 days
  T/C (%): 225%
  Survival rate: 1/6
[1]; Dose 100 mg/kg
  Survival days (mean ± SD): 21.2 ± 7.9 days
  T/C (%): 255%
  Survival rate: 2/6
[1]; Dose 200 mg/kg
  Survival days (mean ± SD): 8.2 ± 1.9 days
  T/C (%): 99%
  Survival rate: 0/6
Slc:ICR mice
  LD50 values: 180 mg/kg

From EP0345356A1, “PLATINUM COMPLEX AND THERAPEUTIC AGENT FOR MALIGNANT TUMOR” (TORAY INDUSTRIES, INC., priority 1987, dated 1989)
